Columns and labels:
[1] = system: patients with subfoveal choroidal neovascularization (CNV) secondary to AMD; experiment: Clinical trial, best-corrected logMAR visual acuity after a single posterior juxtascleral administration; type: in vivo; settings: for LogMAR Change 1 Line Improved, % of patients / LogMAR Change 1 Line Worsened, % of patients / LogMAR Change 2 Lines Worsened, % of patients / LogMAR Change No Change, % of patients / LogMAR Change ≧2 Lines Improved, % of patients / LogMAR Change ≧3 Lines Worsened (clinically significant vision loss), % of patients: Month 6 vs Baseline
Excerpt: (§1) This ongoing trial was initiated to compare the clinical efficacy of anecortave acetate versus placebo treatment for preservation (maintenance) of vision and inhibition of CNV lesion growth. Patients with a logMAR visual acuity of 0.3 (20/40 Snellen equivalent) to 1.2 (20/320 Snellen equivalent) and primary or recurrent subfoveal choroidal neovascularization (CNV) secondary to AMD with a lesion up to 30.48mm^2 (12 disc areas) in size were enrolled. At Baseline and follow-up visits, best-corrected logMAR visual acuity was obtained on all patients using guidelines previously established for the Early Treatment Diabetic Retinopathy Study. Patient lesion eligibility for this study was determined from standardized fluorescein angiograms at the Digital Angiography Reading Center (DARC) by certified Readers (trained retina specialists) prior to enrollment and treatment. The DARC also evaluated changes from Baseline in the fluorescein angiographic characteristics of the lesions in masked fashion. Each data point represents the average of at least two independent evaluations by DARC Readers. Because all angiographic data for this study is being collected using the same fimdus camera and digital camera systems and stored as uncompressed digital images, the actual lesion surface areas can be more closely approximated in mm^2 rather than requiring the disc area “best-fit” estimates previously used for film angiographic data.
The 128 patients in this double-masked, dose-response study were enrolled and treated between April 1999 and May 2001 by 18 participating sites in the US and EU. Prior to treatment, patients were enrolled and equally randomized to anecortave acetate sterile suspension for injection 30 mg (N=33), 15 mg (N=33), or 3 mg (N=32) or to placebo (vehicle, N=30). Masking of the clinical sites as to treatment group is being maintained in two ways. Study medication is masked by placing the treatment kits including study medication and supplies for the posterior juxtascleral administration in sealed opaque boxes identified by patient number only. The boxes were numbered sequentially at each clinical site and patients were assigned the next available sequential number upon enrollment. The randomization was built into the sequential numbering of the treatment kits and blocked within each site to maintain equal distribution across treatment assignments. Masking as to treatment group is also being maintained at each site by having an unmasked injecting investigator perform the treatments and a masked examining investigator perform the subsequent evaluations. Upon enrollment of each patient, anecortave acetate or placebo was administered behind the eye as a 0.5 mL posterior juxtascleral injection onto the outer surface of the sclera near the macula using a specially designed cannula. The cannula is described in commonly owned U.S. Pat. No. 6,413,245B1.
(§2) Clinical efficacy data is being obtained from evaluations of best-corrected logMAR visual acuity and standardized fluorescein angiograms. Clinical safety data obtained from general physical examinations, laboratory evaluations of blood and urine, and complete ophthalmic examinations, including indocyanine green angiography, continue to be periodically evaluated by the Independent Safety Committee overseeing this study. Clinical data from evaluations for safety and efficacy performed at Day 1-2, Week 2, Week 6, Month 3, and Month 6 following patient randomization and treatment are reported here.
The primary efficacy outcome for this ongoing study is the mean change from Baseline in best-corrected logMAR visual acuity. […]

[2] = target: matrix metalloproteinase-3 (Homo sapiens, UniProt P08254); settings: cited from earlier work
Sequence of matrix metalloproteinase-3 (P08254 100-477, species assumed): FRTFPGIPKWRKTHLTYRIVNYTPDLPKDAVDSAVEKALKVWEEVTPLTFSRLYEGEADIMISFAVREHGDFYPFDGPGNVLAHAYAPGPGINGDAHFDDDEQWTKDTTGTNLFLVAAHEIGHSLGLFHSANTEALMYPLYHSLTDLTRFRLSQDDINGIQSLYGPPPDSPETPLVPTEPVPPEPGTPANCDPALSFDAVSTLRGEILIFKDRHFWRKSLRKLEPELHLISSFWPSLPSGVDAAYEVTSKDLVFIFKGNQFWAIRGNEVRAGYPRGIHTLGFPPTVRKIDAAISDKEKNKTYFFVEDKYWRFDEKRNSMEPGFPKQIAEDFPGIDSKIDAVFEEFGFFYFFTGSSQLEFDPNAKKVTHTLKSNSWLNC

[3] = system: subfoveal CNV lesion secondary to AMD; experiment: Clinical trial, CNV lesion surface areas from standardized fluorescein angiograms (DARC); type: in vivo, patients; settings: for inhibition of lesion growth versus placebo: Month 6
Excerpt: as §1, §2
The primary efficacy outcome for this ongoing study is the mean change from Baseline in best-corrected logMAR visual acuity. Secondary efficacy outcomes are: the percentage of patients with preservation or maintenance of vision (defined as loss of less than three logMAR lines [less than 15 logMAR letters] of visual acuity); the percentage of patients with clinically significant worsening of vision (defined as a loss of at least three logMAR lines [at least 15 logMAR letters] of visual acuity); the percentage of patients with severe vision loss (defined as a loss of at least six logMAR lines [at least 30 logMAR letters] of visual acuity); and changes in CNV lesion characteristics (defined as total lesion area, total CNV and total classic CNV).
All efficacy analyses were based on the intent-to-treat principle. All patients received the medication to which they were assigned, and were analyzed accordingly. Last-observation-carry-forward was used to impute missing values. Baseline comparisons were tested using analysis of variance (for continuous outcomes) and Pearson's chi square (for binary outcomes). Changes from baseline in visual acuity and lesion parameters were tested in a repeated measures analysis of variance model with appropriate contrasts for the 6-month comparisons. Comparisons of binary outcomes at Month 6 were evaluated using Pearson's chi-square tests. All analyses of ocular outcomes are based on changes in the study (i.e., treated) eye.

[4] = system: plasminogen activator inhibitor 1; settings: cited from earlier work
[5] = Clinical trial, safety evaluation (ophthalmic and physical examinations, blood and urine); type: in vivo, patients
Excerpt: as §2
Following completion of the Month 6 visit by all patients, the accumulated safety data were evaluated by the Independent Safety Committee overseeing this study. […] The most common ocular changes reported were changes in lens opacity using the Lens Opacity Classification System (LOCS) II, and included reports of nuclear color, nuclear opalescence, cortical, and posterior subcapsular changes. Cataracts are a common intercurrent disorder in this patient population, and the changes seen were documented in all treatment groups and in contralateral (untreated) eyes. The cataractous changes reported were described as mild and typically unrelated to treatment. The second most common ocular change, a decrease in vision (defined as a decrease of ≧4 logMAR lines from the previous visit), is also a common problem in this patient population. These vision decreases occurred in all treatment groups and in the contralateral eye. Other ocular changes (occurring with a frequency greater than 5%) were ptosis, ocular pain, subconjunctival hemorrhage, ocular pruritis, ocular burning/stinging, pupil disorders, foreign body sensation, ocular hyperemia, and abnormal vision. These changes were reported in all four treatment groups, in both treated eyes and contralateral eyes, were characterized as primarily mild, were generally not attributed to treatment, and were transient in nature. The single report of an IOP increase (≧10 mmHg) from Baseline occurred in a patient treated with anecortave acetate 30 mg and was attributed to intercurrent illness. Of the ocular changes reported, those most frequently attributed to study treatment were ptosis, ocular pain, subconjunctival hemorrhage, ocular pruritis, and ocular burning/stinging. These treatment-related events were mostly mild, transient, and seen within all four treatment groups.
The most common non-ocular changes from Baseline reported for this study were hypertension, peripheral edema, depression, and arthritis, none of which were attributed to treatment.

[6] = target: urokinase-like plasminogen activator (Homo sapiens, UniProt P00749); settings: cited from earlier work
glucocorticoid receptor = target: T1, glucocorticoid receptor (Homo sapiens, UniProt P04150); settings: preclinical data (refs 8,9); cited from earlier work
T1 sequence (P04150 1-777): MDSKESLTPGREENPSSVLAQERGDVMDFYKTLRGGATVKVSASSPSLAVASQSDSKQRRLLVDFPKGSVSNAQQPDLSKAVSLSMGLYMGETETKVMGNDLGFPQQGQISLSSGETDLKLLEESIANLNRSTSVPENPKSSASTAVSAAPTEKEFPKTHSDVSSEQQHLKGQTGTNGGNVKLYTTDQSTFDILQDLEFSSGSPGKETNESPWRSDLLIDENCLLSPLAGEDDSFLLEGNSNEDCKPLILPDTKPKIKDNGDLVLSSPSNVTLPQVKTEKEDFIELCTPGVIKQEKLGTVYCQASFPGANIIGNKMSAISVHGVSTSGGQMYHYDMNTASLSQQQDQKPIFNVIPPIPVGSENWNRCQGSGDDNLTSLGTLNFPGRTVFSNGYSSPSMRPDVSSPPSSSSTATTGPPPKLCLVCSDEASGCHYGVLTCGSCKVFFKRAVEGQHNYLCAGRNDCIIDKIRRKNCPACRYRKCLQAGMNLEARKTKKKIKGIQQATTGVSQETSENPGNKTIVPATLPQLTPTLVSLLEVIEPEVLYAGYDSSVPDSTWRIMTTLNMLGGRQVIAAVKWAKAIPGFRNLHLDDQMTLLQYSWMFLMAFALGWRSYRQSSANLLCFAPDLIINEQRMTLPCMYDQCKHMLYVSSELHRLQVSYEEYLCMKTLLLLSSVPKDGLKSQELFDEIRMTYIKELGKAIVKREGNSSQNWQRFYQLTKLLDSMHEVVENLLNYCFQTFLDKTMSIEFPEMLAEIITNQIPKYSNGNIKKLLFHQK

[7] = Preclinical drug levels after slow-release depot adjacent to the posterior scleral surface; type: in vivo; settings: data not shown
[8] = 3 mg single administration, n = 32
[9] = 15 mg single administration, n = 33
[10] = 15 mg single administration, n = 33, listed as Anec Acet
[11] = 30 mg single administration, n = 33

## CC(=O)OCC(=O)[C@@]1(O)CC[C@H]2[C@@H]3CCC4=CC(=O)CC[C@]4(C)C3=CC[C@@]21C [anecortave acetate, 4,9(11)-pregnadien-17α,21-diol-3,20 dione-21 acetate]
[1]; [8]
  LogMAR Change 1 Line Improved, % of patients: 0%
  LogMAR Change 1 Line Worsened, % of patients: 12.5%
  LogMAR Change 2 Lines Worsened, % of patients: 18.8%
  LogMAR Change No Change, % of patients: 37.5%
  LogMAR Change ≧2 Lines Improved, % of patients: 6%
  LogMAR Change ≧3 Lines Worsened (clinically significant vision loss), % of patients: 25.0%
[1]; 3 mg single administration, n = 32, listed as Anec Acet
  LogMAR Change ≧2 Lines Improved, % of patients: 6.3%
[1]; 3 mg, Month 6
  <6 Lines Worse, % of patients: 78.13%
  Severe Vision Loss, ≧6 Lines Worse, % of patients: 21.88%
[1]; 3 mg, statistical significance not achieved
  mean change at Month 6 from Baseline in logMAR visual acuity, versus placebo: Trends also favor treatment
[1]; 15 mg single administration, Month 6 (20/125 Snellen equivalent; Baseline 0.73)
  average final logMAR value: 0.81 logMAR
[1]; [9]
  LogMAR Change 1 Line Improved, % of patients: 3.0%
  LogMAR Change 1 Line Worsened, % of patients: 12.1%
  LogMAR Change 2 Lines Worsened, % of patients: 30.3%
  LogMAR Change No Change, % of patients: 24.2%
  LogMAR Change ≧2 Lines Improved, % of patients: 18%
  LogMAR Change ≧3 Lines Worsened (clinically significant vision loss), % of patients: 12%
[1]; [10]
  LogMAR Change ≧2 Lines Improved, % of patients: 18.2%
  LogMAR Change ≧3 Lines Worsened (clinically significant vision loss), % of patients: 12.1%
[1]; 15 mg single treatment, Month 6
  mean change from Baseline logMAR visual acuity: +0.08 logMAR score
[1]; 15 mg, Month 6
  <6 Lines Worse, % of patients: 96.97%
  Severe Vision Loss, ≧6 Lines Worse, % of patients: 3.03%
[1]; 15 mg, Month 6, overall analysis
  percentage of patients with preservation of vision (decrease of less than three logMAR lines from Baseline): 88%
[1]; 15 mg, Month 6, subgroup with predominantly classic CNV lesion
  percentage of patients with preservation of vision (decrease of less than three logMAR lines from Baseline): 92%
[1]; 15 mg, p=0.0032
  mean change at Month 6 from Baseline in logMAR visual acuity, versus placebo: statistically superior to placebo treatment
[1]; [11]
  LogMAR Change 1 Line Improved, % of patients: 12.1%
  LogMAR Change 1 Line Worsened, % of patients: 15.2%
  LogMAR Change 2 Lines Worsened, % of patients: 15.2%
  LogMAR Change No Change, % of patients: 30.3%
  LogMAR Change ≧2 Lines Improved, % of patients: 3%
  LogMAR Change ≧3 Lines Worsened (clinically significant vision loss), % of patients: 24.2%
[1]; 30 mg single administration, n = 33, listed as Anec Acet
  LogMAR Change ≧2 Lines Improved, % of patients: 3.0%
[1]; 30 mg, Month 6
  <6 Lines Worse, % of patients: 75.76%
  Severe Vision Loss, ≧6 Lines Worse, % of patients: 24.24%
[1]; 30 mg, statistical significance not achieved
  mean change at Month 6 from Baseline in logMAR visual acuity, versus placebo: Trends also favor treatment
[2]
  effect on matrix metalloproteinase-3: inhibits
[3]; 3 mg
  inhibition of lesion growth versus placebo: trend favoring
[3]; 15 mg, Month 6, p=0.0001
  inhibition of total CNV surface area growth, percent change from Baseline, versus placebo: statistically superior to placebo treatment
[3]; 15 mg, Month 6, p=0.0005
  inhibition of total lesion surface area growth, percent change from Baseline, versus placebo: statistically superior to placebo treatment
[3]; 15 mg, Month 6, p=0.0008
  inhibition of total classic CNV surface area growth, percent change from Baseline, versus placebo: statistically superior to placebo treatment
[3]; 30 mg
  inhibition of lesion growth versus placebo: trend favoring
[4]
  effect on plasminogen activator inhibitor 1: upregulates
[5]; 30 mg, attributed to intercurrent illness
  reports of IOP increase (≧10 mmHg) from Baseline: single report
[5]; all doses, 6 months
  changes in blood chemistry, hematology, or urinalysis: No treatment-related changes
[5]; all doses, after Month 6 visit
  safety evaluation by the Independent Safety Committee: no clinically relevant medication-related or administration-related safety concerns were identified
[5]; clinical study, at least 6 months exposure
  ocular corticosteroid side effects (elevated intraocular pressure or accelerated cataract progression): no clinical evidence of ocular corticosteroid side effects
[6]
  effect on urokinase-like plasminogen activator: inhibits
Glucocorticoid receptor
  corticosteroid activity: no measurable corticosteroid activity
[7]
  duration of therapeutic drug levels in the adjacent choroid and retina: up to 6 months
